Values of other authors as cited in US20160256406A1, “OLIGOMERIC/POLYMERIC SILICONE FLUIDS FOR USE IN TRANSDERMAL DRUG DELIVERY SYSTEMS” (priority 2015, published 2016).

Tests used:
[1] = at RT
[2] = at RT; remark: listed apart in the source

Compound	Octanol/Water Partition Coefficient (Log Kow) [1]	Water Solubility [2] [mg/L]
C[Si]1(C)O[Si](C)(C)O[Si](C)(C)O1 [D3, Hexamethylcyclotrisiloxane]	4.5	–
C[Si]1(C)O[Si](C)(C)O[Si](C)(C)O[Si](C)(C)O1 [D4, Octamethylcyclotetrasiloxane]	5.1	–
C[Si]1(C)O[Si](C)(C)O[Si](C)(C)O[Si](C)(C)O[Si](C)(C)O1 [D5, Decamethylcyclopentasiloxane]	5.2-5.7	0.017 to 0.050
C[Si]1(C)O[Si](C)(C)O[Si](C)(C)O[Si](C)(C)O[Si](C)(C)O[Si](C)(C)O1 [D6, Dodecamethylcyclohexasiloxane]	6.3	0.005
C[Si](C)(C)O[Si](C)(C)C [L2, Hexamethyldisiloxane]	4.2	–
C[Si](C)(C)O[Si](C)(C)O[Si](C)(C)C [L3, Octamethyltrisiloxane]	4.8	–
C[Si](C)(C)O[Si](C)(C)O[Si](C)(C)O[Si](C)(C)C [L4, Decamethyltetrasiloxane]	5.4	–
C[Si](C)(C)O[Si](C)(C)O[Si](C)(C)O[Si](C)(C)O[Si](C)(C)C [L5, Dodecamethylpentasiloxane]	6.0	–
